We go through 2 molecules from patent publication US10537565B2, “Solid forms of N-[2,4-bis(1,1-dimethylethyl)-5-hydroxyphenyl]-1,4-dihydro-4-oxoquinoline-3-carboxamide” (Vertex Pharmaceuticals Incorporated, priority 2005, dated 2020).

Structures are written as SMILES. In brackets after ≈: the same amount, converted by molar mass.

Data set [1] in a line: Bioavailability (PK) of solid state forms of Compound 1 in rat, oral dosing compared to IV solution. As to conditions: in vivo. The method, then: Bioavailability of crystalline Form B, 85% amorphous Compound 1 and HPMCAS solid dispersion of Compound 1 were evaluated in rat, the results of which are provided in Table 4 below. These forms of the compound were dosed in an oral suspension with a vehicle containing 0.5% methyl cellulose/0.5% SLS/99% water. Bioavailability of various solid forms was evaluated as compared to a multicomponent IV solution of Compound 1. Bioavailability of crystalline […] was 3-6%, compared to 61-95% for amorphous material and 109-111% for solid dispersion.

Data set [2] is described as follows: Solubility in FaSSIF. In kind it is physicochemical.

Consider `CC(C)(C)c1cc(C(C)(C)C)c(NC(=O)c2c[nH]c3ccccc3c2=O)cc1O` [85% Amorphous, N-[2,4-bis(1,1-dimethylethyl)-5-hydroxyphenyl]-1,4-dihydro-4-oxoquinoline-3-carboxamide], for which the bioavailability in data set [1] (po) is recorded as 61-95%. For the same molecule, in data set [1] (po, 50 mg/kg), the “% F” value was 95.0%, the AUC amounted to 135.5 µg·h/mL and the Tmax worked out at 6.0 h. In data set [1] (po, 200 mg/kg), the “% F” value was 61.0%, the AUC stood at 371.9 µg·h/mL and the Tmax was 6.0 h. Moreover, in data set [2] (listed as 85% amorphous material), the solubility turned out to be 67.4 µg/mL (≈ 172 µM).
In the case of `CC(C)(C)c1cc(C(C)(C)C)c(NC(=O)c2c[nH]c3ccccc3c2=O)cc1O` [Crystalline, N-[2,4-bis(1,1-dimethylethyl)-5-hydroxyphenyl]-1,4-dihydro-4-oxoquinoline-3-carboxamide], the bioavailability is 74% in data set [1] (50 mg/kg, % F) and 67% in data set [1] (200 mg/kg, % F). The “% F” value is 5.5% in data set [1] (po, 50 mg/kg) and 3.1% in data set [1] (po, 200 mg/kg). Besides, the Tmax worked out at 4.0 h in data set [1] (po, 50 mg/kg) and 5.5 h in data set [1] (po, 50 mg/kg, Tmax). In data set [2] (listed as crystalline polymorph B), this molecule returned a solubility of 1.0 µg/mL (≈ 2.55 µM).

The term bioavailability denotes the share of a dose that reaches the circulation, judged against a reference dose that is usually intravenous. By AUC is commonly meant concentration integrated over time. As usually defined, the Tmax is the time from dosing to the highest level. A word on the solubility: it is how much of the substance goes into solution per volume.
